Experimental data as given in patent US20230089073A1 (Carmot Therapeutics, Inc., priority 2021, published 2023).
pEC50: −log10 of the molar value.

Biological target: T1, human GLP-1 receptor (Homo sapiens, UniProt P43220)
T1 construct: expressed in transfected cells
Assay: GLP-1R cAMP Assay
Assay type: cell-based
Details: cAMP accumulation in CHO cells stably overexpressing the human GLP-1 receptor; 30 min treatment; HitHunter cAMP kit; read-out: EC50
Protocol: cAMP accumulation was measured in Chinese hamster ovary (CHO) cells stably overexpressing the human GLP-1 receptor using the HitHunter cAMP Assay for Small Molecules Kit (Eurofins). Briefly, cells were grown in Ham's F12 Nutrient Mix with 10% FBS, and lifted with Cell Dissociation Buffer, Enzyme free, PBS based (ThermoFisher). […] The anti-cAMP antibody reagent was then added to cells at a 1:2 ratio and 5 μL of mixture was seeded in 384-well small volume white assay plates, at 10,000 cells/well. Cells were then treated with 50 nL compound using an ECHO 550 acoustic dispenser (Labcyte) in a 20-point dose response format in triplicate for 30 min. Cells were then lysed, and detection reagents added according to the manufacturer's protocol. After overnight incubation, luminescence was measured using a Perkin Elmer Envision plate reader. Dose response curves were analyzed using GraphPad Prism 9.0.

T1 sequence (P43220 24-463): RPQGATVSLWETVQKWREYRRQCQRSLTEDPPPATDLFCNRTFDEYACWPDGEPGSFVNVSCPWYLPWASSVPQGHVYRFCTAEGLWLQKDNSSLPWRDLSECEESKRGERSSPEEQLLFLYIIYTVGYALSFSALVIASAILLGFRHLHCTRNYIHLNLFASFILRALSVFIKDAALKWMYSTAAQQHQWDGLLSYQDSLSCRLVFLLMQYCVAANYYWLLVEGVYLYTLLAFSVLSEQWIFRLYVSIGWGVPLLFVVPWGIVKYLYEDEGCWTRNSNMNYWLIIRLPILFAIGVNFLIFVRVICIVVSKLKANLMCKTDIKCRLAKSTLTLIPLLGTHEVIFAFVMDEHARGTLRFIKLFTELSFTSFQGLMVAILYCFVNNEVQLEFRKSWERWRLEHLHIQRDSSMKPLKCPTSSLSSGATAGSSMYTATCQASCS

Compound	pEC50
CCn1cncc1Cn1c(CN2CCC(Oc3cccc(COc4ccc(Cl)cc4F)c3)CC2)nc2ccc(C(=O)O)cc21 [Compound 231, 2-[(4-{3-[(4-chloro-2-fluorophenoxy)methyl]phenoxy}piperidin-1-yl)methyl]-1-[(1-ethyl-1H-imidazol-5-yl)methyl]-1H-1,3-benzodiazole-6-carboxylic acid]	> 7.30
N#Cc1ccc(OCc2cccc(OC3CCN(Cc4nc5ccc(C(=O)O)cc5n4C[C@@H]4CCO4)CC3)n2)c(F)c1 [Example 285, (S)-2-((4-((6-((4-Cyano-2-fluorophenoxy)methyl)pyridin-2-yl)oxy)piperidin-1-yl)methyl)-1-(oxetan-2-ylmethyl)-1H-benzo[d]imidazole-6-carboxylic acid]	> 7.30
Cc1ccc(N(C)c2cc(C(=O)N3CCN(Cc4nc5ccc(C(=O)O)cc5n4C[C@@H]4CCO4)CC3)ccn2)c(Cl)c1 [Example 99, (S)-2-((4-(2-((2-Chloro-4-methylphenyl)(methyl)amino)isonicotinoyl)piperazin-1-yl)methyl)-1-(oxetan-2-ylmethyl)-1H-benzo[d]imidazole-6-carboxylic acid]	6.30 to 7.30
CCn1cncc1Cn1c(CN2CCN(C(=O)c3cccc(Cc4ccc(C)cc4Cl)c3)CC2)nc2ccc(C(=O)O)cc21 [Compound 56, 2-[(4-{3-[(2-chloro-4-methylphenyl)methyl]benzoyl}piperazin-1-yl)methyl]-1-[(1-ethyl-1H-imidazol-5-yl)methyl]-1H-1,3-benzodiazole-6-carboxylic acid]	6.30 to 7.30
O=C(O)c1ccc2nc(CN3CCC(Oc4cccc(COc5ccc(Cl)cc5Cl)c4)CC3)n(C[C@@H]3CCO3)c2c1 [Compound 174, 2-[(4-{3-[(2,4-dichlorophenoxy)methyl]phenoxy}piperidin-1-yl)methyl]-1-{[(2S)-oxetan-2-yl]methyl}-1H-1,3-benzodiazole-6-carboxylic acid]	> 7.30
O=C(O)c1ccc2nc(CN3CCC(Oc4ccnc(COc5ccc(Cl)cc5F)c4)CC3)n(Cc3cnco3)c2c1 [Compound 265, 2-{[4-({2-[(4-chloro-2-fluorophenoxy)methyl]pyridin-4-yl}oxy)piperidin-1-yl]methyl}-1-[(1,3-oxazol-5-yl)methyl]-1H-1,3-benzodiazole-6-carboxylic acid]	> 7.30
N#Cc1ccc(OCc2nccc(O[C@H]3CCN(Cc4nc5ccc(C(=O)O)cc5n4C[C@@H]4CCO4)[C@@H](CF)C3)n2)c(F)c1 [Example 490, 2-(((2R,4S)-4-((2-((4-Cyano-2-fluorophenoxy)methyl)pyrimidin-4-yl)oxy)-2-(fluoromethyl)piperidin-1-yl)methyl)-1-(((S)-oxetan-2-yl)methyl)-1H-benzo[d]imidazole-6-carboxylic acid]	> 7.30
N#Cc1cc(Cl)ccc1OCc1cccc(CC2CCN(Cc3nc4ccc(C(=O)O)cc4n3C[C@@H]3CCO3)CC2)c1 [Compound 166, 2-{[4-({3-[(4-chloro-2-cyanophenoxy)methyl]phenyl}methyl)piperidin-1-yl]methyl}-1-{[(2S)-oxetan-2-yl]methyl}-1H-1,3-benzodiazole-6-carboxylic acid]	> 7.30
O=C(O)c1ccc2nc(CN3CCC(Oc4cccc(COc5ccc(Cl)cc5Cl)c4)CC3)n(C[C@@H]3CCO3)c2c1F [Compound 224, 2-[(4-{3-[(2,4-dichlorophenoxy)methyl]phenoxy}piperidin-1-yl)methyl]-7-fluoro-1-{[(2S)-oxetan-2-yl]methyl}-1H-1,3-benzodiazole-6-carboxylic acid]	> 7.30
Cc1ccc(OCc2cccc(CC3CCN(Cc4nc5ccc(C(=O)O)cc5n4C[C@@H]4CCO4)CC3)n2)c(Cl)c1 [Compound 118, 2-{[4-({6-[(2-chloro-4-methylphenoxy)methyl]pyridin-2-yl}methyl)piperidin-1-yl]methyl}-1-{[(2S)-oxetan-2-yl]methyl}-1H-1,3-benzodiazole-6-carboxylic acid]	> 7.30
C[C@H]1C[C@@H](Oc2ccnc(COc3ccc(C4CC4)cc3C#N)n2)CCN1Cc1nc2ccc(C(=O)O)cc2n1C[C@@H]1CCO1 [Compound 510, 2-(((2S,4S)-4-((2-((2-cyano-4-cyclopropylphenoxy)methyl)pyrimidin-4-yl)oxy)-2-methylpiperidin-1-yl)methyl)-1-(((S)-oxetan-2-yl)methyl)-1H-benzo[d]imidazole-6-carboxylic acid]	> 7.30
COCCC1(Cn2c(CN3CCC(Oc4ccnc(COc5ccc(Cl)cc5F)c4)CC3)nc3ccc(C(=O)O)cc32)CC1 [Compound 354]	> 7.30
N#Cc1cc(Cl)ccc1OCc1cc(OC2CCN(Cc3nc4ccc(C(=O)O)cc4n3C[C@@H]3CCO3)CC2)ccn1 [Compound 182, 2-{[4-({2-[(4-chloro-2-cyanophenoxy)methyl]pyridin-4-yl}oxy)piperidin-1-yl]methyl}-1-{[(2S)-oxetan-2-yl]methyl}-1H-1,3-benzodiazole-6-carboxylic acid]	> 7.30
C[C@H]1C[C@@H](Oc2ccnc(COc3ccc(C(F)(F)F)cc3F)n2)CCN1Cc1nc2ccc(C(=O)O)nc2n1C[C@@H]1CCO1 [Compound 377]	> 7.30
C[C@H]1CN(C(=O)c2cnc(COc3ccc(Cl)cc3Cl)o2)CCN1Cc1nc2ccc(C(=O)O)cc2n1C[C@@H]1CCO1 [Example 186, 2-(((S)-4-(2-((2,4-Dichlorophenoxy)methyl)oxazole-5-carbonyl)-2-methylpiperazin-1-yl)methyl)-1-(((S)-oxetan-2-yl)methyl)-1H-benzo[d]imidazole-6-carboxylic acid]	> 7.30
Cc1ccc(N(C)c2cccc(OC3CCN(Cc4nc5ccc(C(=O)O)cc5n4C[C@@H]4CCO4)CC3)c2)c(Cl)c1 [Example 111, (S)-2-((4-(3-((2-Chloro-4-methylphenyl)(methyl)amino)phenoxy)piperidin-1-yl)methyl)-1-(oxetan-2-ylmethyl)-1H-benzo[d]imidazole-6-carboxylic acid]	6.30 to 7.30
N#Cc1cc(Cl)ccc1OCc1cccc(OC2CCN(Cc3nc4ccc(C(=O)O)cc4n3C[C@@H]3CCO3)CC2)n1 [Compound 248, 2-{[4-({6-[(4-chloro-2-cyanophenoxy)methyl]pyridin-2-yl}oxy)piperidin-1-yl]methyl}-1-{[(2S)-oxetan-2-yl]methyl}-1H-1,3-benzodiazole-6-carboxylic acid]	6.30 to 7.30
O=C(O)c1cc(F)c2nc(CN3CCC(Oc4ccnc(COc5ccc(C(F)F)cc5F)n4)CC3)n(C[C@@H]3CCO3)c2c1 [Compound 312, 2-({4-[(2-{[4-(difluoromethyl)-2-fluorophenoxy]methyl}pyrimidin-4-yl)oxy]piperidin;-1-yl}methyl)-1-{[(2S)-oxetan-2-yl]methyl}-1H-1,3-benzodiazole-6-carboxylic acid]	> 7.30
Cc1cc(C(C)C)ccc1Oc1cccc(C(=O)N2CCN(Cc3nc4ccc(C(=O)O)cc4n3C[C@@H]3CCO3)CC2)c1 [Example 89, (S)-2-((4-(3-(4-Isopropyl-2-methylphenoxy)benzoyl)piperazin-1-yl)methyl)-1-(oxetan-2-ylmethyl)-1H-benzo[d]imidazole-6-carboxylic acid]	6.30 to 7.30
Cc1ccc(Oc2ccc(C(=O)N3CCN(Cc4nc5ccc(C(=O)O)cc5n4C[C@@H]4CCO4)CC3)cc2)cc1 [Compound 22, 2-({4-[4-(4-methylphenoxy)benzoyl]piperazin-1-yl}methyl)-1-{[(2S)-oxetan-2-yl]methyl}-1H-1,3-benzodiazole-6-carboxylic acid]	< 6.30
